Test results as given in ChEMBL document CHEMBL1201862, “PubChem BioAssay data set” (2004).
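Dose response: 5 concentrations. Exposure: 48 h. Format: 96-well plates. Endpoint: linear interpolation; highest concentration if not reached. GI50: concentration for 50% inhibition of growth.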 Activity calls are given as the source filed them. Rule as the data show it: active = GI50 up to about 1.1 µM and inactive = higher.

Legend:
Test in all cases: NCI anticancer screen, dose series, 48 h
UO-31 = tested on: UO-31
SW-620 = tested on: SW-620
CCRF-CEM = tested on: CCRF-CEM
UACC-62 = tested on: UACC-62
Malme-3M = tested on: Malme-3M
SF-268 = tested on: SF-268
HCT-15 = tested on: HCT-15
HOP-62 = tested on: HOP-62
TK-10 = tested on: TK-10
NCI-H522 = tested on: NCI-H522
786-0 = tested on: 786-0
KM12 = tested on: KM12
MOLT-4 = tested on: MOLT-4
SNB-19 = tested on: SNB-19
NCI-H23 = tested on: NCI-H23
MCF7 = tested on: MCF7
NCI/ADR-RES = tested on: NCI/ADR-RES

## CNc1nnnn1C1OC(CO)C(O)C1O (stereo unspecified)
UO-31
  GI50: > 100 µM (inactive)
SW-620
  GI50: > 100 µM (inactive)
CCRF-CEM
  GI50: > 100 µM (inactive)
UACC-62
  GI50: > 100 µM (inactive)
Malme-3M
  GI50: > 100 µM (inactive)
SF-268
  GI50: > 100 µM (inactive)
HCT-15
  GI50: > 100 µM
HOP-62
  GI50: > 100 µM (inactive)
TK-10
  GI50: > 100 µM (inactive)
NCI-H522
  GI50: > 100 µM (inactive)
786-0
  GI50: > 100 µM (inactive)
KM12
  GI50: > 100 µM (inactive)
MOLT-4
  GI50: > 100 µM (inactive)

## COc1ccc(OC2(c3cc(OC)ccc3OC)OC(=O)c3ccccc32)cc1 (stereo unspecified)
UO-31
  GI50: > 100 µM (inactive)
SW-620
  GI50: > 100 µM (inactive)
CCRF-CEM
  GI50: > 100 µM (inactive)
UACC-62
  GI50: > 100 µM (inactive)
Malme-3M
  GI50: > 100 µM (inactive)
SF-268
  GI50: > 100 µM (inactive)
HCT-15
  GI50: > 100 µM
HOP-62
  GI50: > 100 µM (inactive)
TK-10
  GI50: > 100 µM (inactive)
SNB-19
  GI50: > 100 µM (inactive)
NCI-H522
  GI50: > 100 µM (inactive)
786-0
  GI50: > 100 µM (inactive)
KM12
  GI50: > 100 µM (inactive)
NCI-H23
  GI50: > 100 µM (inactive)
MOLT-4
  GI50: > 100 µM (inactive)

## COC(=O)C(CCCN1C(=O)c2ccccc2C1=O)C(=O)OC
UO-31
  GI50: > 100 µM (inactive)
SW-620
  GI50: > 100 µM (inactive)
CCRF-CEM
  GI50: > 100 µM (inactive)
UACC-62
  GI50: > 100 µM (inactive)
Malme-3M
  GI50: > 100 µM (inactive)
SF-268
  GI50: > 100 µM (inactive)
HCT-15
  GI50: > 100 µM
HOP-62
  GI50: > 100 µM (inactive)
TK-10
  GI50: > 100 µM (inactive)
SNB-19
  GI50: > 100 µM (inactive)
NCI-H522
  GI50: > 100 µM (inactive)
786-0
  GI50: > 100 µM (inactive)
KM12
  GI50: > 100 µM (inactive)
NCI-H23
  GI50: > 100 µM (inactive)
MOLT-4
  GI50: > 100 µM (inactive)

## CCOC(OC1=C(C#N)CCCC1)C(C)[Se]c1ccccc1 (stereo unspecified)
UO-31
  GI50: 43.6 µM (inactive)
CCRF-CEM
  GI50: 21.7 µM (inactive)
UACC-62
  GI50: 19.2 µM (inactive)
Malme-3M
  GI50: 55.3 µM (inactive)
SF-268
  GI50: 18.5 µM (inactive)
HCT-15
  GI50: 36.8 µM
HOP-62
  GI50: 78.3 µM (inactive)
TK-10
  GI50: > 100 µM (inactive)
SNB-19
  GI50: 54.5 µM (inactive)
NCI-H522
  GI50: 16 µM (inactive)
786-0
  GI50: 15.5 µM (inactive)
KM12
  GI50: > 100 µM (inactive)
NCI-H23
  GI50: 16 µM (inactive)
MOLT-4
  GI50: 29 µM (inactive)

## S=C(N/N=C/c1ccco1)NC12CC3CC(CC(C3)C1)C2
UO-31
  GI50: > 100 µM (inactive)
SW-620
  GI50: > 100 µM (inactive)
CCRF-CEM
  GI50: 54.2 µM (inactive)
UACC-62
  GI50: 29.9 µM (inactive)
Malme-3M
  GI50: > 100 µM (inactive)
SF-268
  GI50: > 100 µM (inactive)
HCT-15
  GI50: 47.4 µM
HOP-62
  GI50: > 100 µM (inactive)
TK-10
  GI50: 49.5 µM (inactive)
SNB-19
  GI50: > 100 µM (inactive)
NCI-H522
  GI50: 36.7 µM (inactive)
786-0
  GI50: 62.7 µM (inactive)
KM12
  GI50: > 100 µM (inactive)
NCI-H23
  GI50: > 100 µM (inactive)
MOLT-4
  GI50: 39.4 µM (inactive)

## COc1ccc(-c2cc(=O)c3c(O)c(O)c(OC)cc3o2)cc1O
UO-31
  GI50: > 100 µM (inactive)
SW-620
  GI50: > 100 µM (inactive)
CCRF-CEM
  GI50: > 100 µM (inactive)
UACC-62
  GI50: > 100 µM (inactive)
Malme-3M
  GI50: > 100 µM (inactive)
SF-268
  GI50: 84.5 µM (inactive)
HCT-15
  GI50: > 100 µM
HOP-62
  GI50: > 100 µM (inactive)
TK-10
  GI50: > 100 µM (inactive)
SNB-19
  GI50: > 100 µM (inactive)
NCI-H522
  GI50: 53.5 µM (inactive)
786-0
  GI50: > 100 µM (inactive)
KM12
  GI50: > 100 µM (inactive)
NCI-H23
  GI50: > 100 µM (inactive)
MOLT-4
  GI50: > 100 µM (inactive)

## Cc1nc2c(n1Cc1ccc(Cl)cc1)C(=O)c1ccccc1C2=O
UO-31
  GI50: > 75 µM (inactive)
CCRF-CEM
  GI50: 4.67 µM (inactive)
UACC-62
  GI50: 3.36 µM (inactive)
Malme-3M
  GI50: 35.6 µM (inactive)
SF-268
  GI50: 5.09 µM (inactive)
HCT-15
  GI50: 1.07 µM
HOP-62
  GI50: 20.8 µM (inactive)
TK-10
  GI50: > 75 µM (inactive)
SNB-19
  GI50: > 75 µM (inactive)
NCI-H522
  GI50: 5.52 µM (inactive)
786-0
  GI50: 5.68 µM (inactive)
KM12
  GI50: > 75 µM (inactive)
NCI-H23
  GI50: > 75 µM (inactive)
MOLT-4
  GI50: 3.14 µM (inactive)

## O=[N+]([O-])c1ccc2nc(/C(=N/Nc3ccccc3)C(O)c3ccc(Cl)cc3Cl)c(O)nc2c1 (stereo unspecified)
UO-31
  GI50: 78.9 µM (inactive)
CCRF-CEM
  GI50: 22.3 µM (inactive)
UACC-62
  GI50: 48.5 µM (inactive)
Malme-3M
  GI50: > 100 µM (inactive)
SF-268
  GI50: > 100 µM (inactive)
HCT-15
  GI50: > 100 µM
HOP-62
  GI50: > 100 µM (inactive)
TK-10
  GI50: > 100 µM (inactive)
NCI-H522
  GI50: 15.9 µM (inactive)
786-0
  GI50: > 100 µM (inactive)
KM12
  GI50: 49.3 µM (inactive)
NCI-H23
  GI50: > 100 µM (inactive)
MOLT-4
  GI50: 84.5 µM (inactive)

## Cn1c(=O)nc2n(-c3ccc(Cl)cc3)c(-c3ccccc3)c(-c3ccccc3)nc-2c1=O
UO-31
  GI50: 18.4 µM (inactive)
SW-620
  GI50: 40.7 µM (inactive)
CCRF-CEM
  GI50: 21.9 µM (inactive)
UACC-62
  GI50: 14.5 µM (inactive)
Malme-3M
  GI50: 28.4 µM (inactive)
SF-268
  GI50: 23.6 µM (inactive)
HCT-15
  GI50: 22.5 µM
HOP-62
  GI50: 25.3 µM (inactive)
TK-10
  GI50: 51.2 µM (inactive)
SNB-19
  GI50: 32.1 µM (inactive)
NCI-H522
  GI50: 36.7 µM (inactive)
786-0
  GI50: 29.8 µM (inactive)
KM12
  GI50: 23.8 µM (inactive)
NCI-H23
  GI50: 66.2 µM (inactive)
MOLT-4
  GI50: 16.5 µM (inactive)

## COC(=O)[C@H]1[C@H]2C[C@@H]3c4[nH]c5cc(OC)ccc5c4CCN3C[C@H]2C[C@@H](OC(=O)c2cc(OC)c(OC)c(OC)c2)[C@@H]1OC [RESERPINE]
UO-31
  GI50: 15.1 µM (inactive)
SW-620
  GI50: 26.8 µM (inactive)
CCRF-CEM
  GI50: 13.2 µM (inactive)
UACC-62
  GI50: 13.3 µM (inactive)
Malme-3M
  GI50: 17.5 µM (inactive)
SF-268
  GI50: 28.1 µM (inactive)
HCT-15
  GI50: 20.3 µM
HOP-62
  GI50: 12.6 µM (inactive)
TK-10
  GI50: 17.5 µM (inactive)
SNB-19
  GI50: 16.2 µM (inactive)
NCI-H522
  GI50: 17.9 µM (inactive)
786-0
  GI50: 14.2 µM (inactive)
KM12
  GI50: 18.4 µM (inactive)
NCI-H23
  GI50: 18.1 µM (inactive)
MOLT-4
  GI50: 7.19 µM (inactive)

## O=C1C(c2ccc([N+](=O)[O-])cc2)=[N+]([O-])c2ccccc21
UO-31
  GI50: 29.4 µM (inactive)
SW-620
  GI50: 32.4 µM (inactive)
CCRF-CEM
  GI50: 22.9 µM (inactive)
UACC-62
  GI50: 19.2 µM (inactive)
Malme-3M
  GI50: 36.6 µM (inactive)
SF-268
  GI50: 40.8 µM (inactive)
HCT-15
  GI50: 17.3 µM
HOP-62
  GI50: 32.4 µM (inactive)
TK-10
  GI50: 37.1 µM (inactive)
SNB-19
  GI50: < 0.01 µM (active)
NCI-H522
  GI50: 8.57 µM (inactive)
786-0
  GI50: > 100 µM (inactive)
KM12
  GI50: 34.8 µM (inactive)
NCI-H23
  GI50: 23.3 µM (inactive)
MOLT-4
  GI50: 31.5 µM (inactive)

## COc1cc2c(c(OC)c1OC)C(=O)NCCC2
UO-31
  GI50: > 100 µM (inactive)
SW-620
  GI50: > 100 µM (inactive)
CCRF-CEM
  GI50: > 100 µM (inactive)
UACC-62
  GI50: > 100 µM (inactive)
Malme-3M
  GI50: > 100 µM (inactive)
SF-268
  GI50: > 100 µM (inactive)
HCT-15
  GI50: > 100 µM
MCF7
  GI50: > 100 µM (inactive)
HOP-62
  GI50: > 100 µM (inactive)
TK-10
  GI50: > 100 µM (inactive)
SNB-19
  GI50: > 100 µM (inactive)
NCI/ADR-RES
  GI50: > 100 µM (inactive)
NCI-H522
  GI50: > 100 µM (inactive)
786-0
  GI50: > 100 µM (inactive)
KM12
  GI50: > 100 µM (inactive)
NCI-H23
  GI50: > 100 µM (inactive)
MOLT-4
  GI50: > 100 µM (inactive)

## Cc1ccc(NC(=O)CC2C(=O)Nc3ccccc3[S+]2[O-])c(C)c1 (stereo unspecified)
UO-31
  GI50: 19.3 µM (inactive)
SW-620
  GI50: 5.81 µM (inactive)
CCRF-CEM
  GI50: 11.5 µM (inactive)
UACC-62
  GI50: 7.23 µM (inactive)
Malme-3M
  GI50: 18.4 µM (inactive)
SF-268
  GI50: 24.5 µM (inactive)
HCT-15
  GI50: 4.94 µM
HOP-62
  GI50: 16.4 µM (inactive)
TK-10
  GI50: 22.4 µM (inactive)
SNB-19
  GI50: 11.7 µM (inactive)
NCI-H522
  GI50: 6.89 µM (inactive)
786-0
  GI50: 15.1 µM (inactive)
KM12
  GI50: 4.6 µM (inactive)
NCI-H23
  GI50: 14.9 µM (inactive)
MOLT-4
  GI50: 6.28 µM (inactive)

## CN(C)CCC(/C=C/c1ccccc1)=N\Nc1ccc(Cl)cc1
UO-31
  GI50: 1.71 µM (inactive)
SW-620
  GI50: 3.87 µM (inactive)
CCRF-CEM
  GI50: 2.96 µM (inactive)
UACC-62
  GI50: 2.03 µM (inactive)
Malme-3M
  GI50: 12.7 µM (inactive)
SF-268
  GI50: 2.07 µM (inactive)
HCT-15
  GI50: 3.01 µM
HOP-62
  GI50: 1.8 µM (inactive)
TK-10
  GI50: 2.89 µM (inactive)
SNB-19
  GI50: 11 µM (inactive)
NCI-H522
  GI50: 3.24 µM (inactive)
786-0
  GI50: 2.39 µM (inactive)
KM12
  GI50: 2.84 µM (inactive)
NCI-H23
  GI50: 7.24 µM (inactive)
MOLT-4
  GI50: 2.23 µM (inactive)
